The molecules below were run against T1, VLA-4 (Homo sapiens, UniProt P05556+P13612) (assay: VLA-4 direct binding assay (VCAM-IgG alkaline phosphatase conjugate binding to Jurkat cells)). Details: Table 1, Structure-Activity; assay and unit inferred; read-out: Act.
T1 construct: endogenous in cells; host or cells: Jurkat cells
T1 sequence (P13612 34-1032): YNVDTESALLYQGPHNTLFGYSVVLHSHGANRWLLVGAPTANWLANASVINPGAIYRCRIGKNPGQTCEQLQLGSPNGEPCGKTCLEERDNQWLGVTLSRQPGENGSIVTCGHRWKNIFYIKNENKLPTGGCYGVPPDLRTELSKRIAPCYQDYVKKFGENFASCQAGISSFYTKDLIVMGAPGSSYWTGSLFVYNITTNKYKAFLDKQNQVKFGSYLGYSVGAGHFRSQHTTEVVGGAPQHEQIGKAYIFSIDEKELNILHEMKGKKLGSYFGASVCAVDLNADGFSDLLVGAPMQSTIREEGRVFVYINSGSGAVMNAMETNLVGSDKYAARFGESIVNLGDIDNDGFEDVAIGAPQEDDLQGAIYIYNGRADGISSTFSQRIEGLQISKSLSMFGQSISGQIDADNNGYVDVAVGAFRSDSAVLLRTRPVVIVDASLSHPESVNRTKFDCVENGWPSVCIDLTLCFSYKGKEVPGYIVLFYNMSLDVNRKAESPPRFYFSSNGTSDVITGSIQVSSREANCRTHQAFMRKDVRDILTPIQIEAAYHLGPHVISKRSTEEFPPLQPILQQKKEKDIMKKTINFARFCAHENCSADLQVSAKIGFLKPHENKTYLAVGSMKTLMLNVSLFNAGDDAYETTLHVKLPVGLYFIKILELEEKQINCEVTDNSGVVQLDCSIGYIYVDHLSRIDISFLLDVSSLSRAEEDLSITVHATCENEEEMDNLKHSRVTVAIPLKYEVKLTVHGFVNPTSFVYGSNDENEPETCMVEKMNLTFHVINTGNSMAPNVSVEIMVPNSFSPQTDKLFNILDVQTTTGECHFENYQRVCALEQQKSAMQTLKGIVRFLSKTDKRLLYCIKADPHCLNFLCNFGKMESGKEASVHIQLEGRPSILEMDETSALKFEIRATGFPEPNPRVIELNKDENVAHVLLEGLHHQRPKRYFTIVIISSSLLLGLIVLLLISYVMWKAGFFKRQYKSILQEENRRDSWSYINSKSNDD
T1 sequence (P05556 21-798): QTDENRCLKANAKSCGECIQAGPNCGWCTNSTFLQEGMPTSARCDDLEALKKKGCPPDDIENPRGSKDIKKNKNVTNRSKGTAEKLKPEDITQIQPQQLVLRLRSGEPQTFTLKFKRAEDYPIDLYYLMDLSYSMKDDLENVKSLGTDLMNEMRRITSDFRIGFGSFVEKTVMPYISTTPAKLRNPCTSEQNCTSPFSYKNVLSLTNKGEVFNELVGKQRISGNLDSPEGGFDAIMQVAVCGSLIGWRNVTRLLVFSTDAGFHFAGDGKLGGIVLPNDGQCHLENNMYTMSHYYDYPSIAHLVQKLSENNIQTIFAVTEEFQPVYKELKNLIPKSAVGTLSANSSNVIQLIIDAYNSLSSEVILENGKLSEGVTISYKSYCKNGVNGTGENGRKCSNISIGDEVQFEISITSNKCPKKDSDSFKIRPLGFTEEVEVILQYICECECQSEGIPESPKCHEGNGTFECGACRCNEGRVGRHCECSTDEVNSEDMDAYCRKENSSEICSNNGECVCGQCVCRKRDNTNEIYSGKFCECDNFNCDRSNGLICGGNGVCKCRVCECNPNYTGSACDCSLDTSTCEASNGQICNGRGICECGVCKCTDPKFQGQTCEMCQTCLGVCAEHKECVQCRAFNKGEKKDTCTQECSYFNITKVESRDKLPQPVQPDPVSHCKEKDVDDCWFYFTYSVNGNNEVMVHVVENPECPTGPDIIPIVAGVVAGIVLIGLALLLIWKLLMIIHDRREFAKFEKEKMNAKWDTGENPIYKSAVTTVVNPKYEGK
Text: A direct binding assay may also be employed to quantitate the inhibitory activity of the compounds of this invention. (“DBA”) In direct binding assays, for example, a VCAM-IgG fusion protein containing the first two immunoglobulin domains of VCAM (D1D2) attached above the hinge region of an IgG1 molecule (“VCAM 2D-IgG”), is conjugated to a marker enzyme, such as alkaline phosphatase (“AP”). The synthesis of this VCAM-IgG fusion is described in PCT publication WO 90/13300, the disclosure of which is herein incorporated by reference. The conjugation of that fusion to a marker enzyme can be achieved by cross-linking methods well-known in the art.
The VCAM-IgG enzyme conjugate is then placed in the wells of a multi-well filtration plate, such as that contained in the Millipore Multiscreen Assay System (Millipore Corp., Bedford, Mass.). Varying concentrations of the test inhibitory compound are then added to the wells followed by addition of VLA-4-expressing cells. The cells, compound and VCAM-IgG enzyme conjugate are mixed together and allowed to incubate at room temperature.
Following incubation, the wells are vacuum drained, leaving behind the cells and any bound VCAM. Quantitation of bound VCAM is determined by adding an appropriate calorimetric substrate for the enzyme conjugated to VCAM-IgG and determining the amount of reaction product. Decreased reaction product indicates increased binding inhibitory activity. The protocol is described more specifically below:
1. Block a 96 well Millipore Multiscreen Assay System filtration plate^1 with 200:l/well of blocking buffer (1×Phosphate Buffered Saline, 0.1%Tween 20, 1%BSA) for at least 1 hour at room temperature.
2. Drain the plate with the vacuum manifold, and wash with 200 μl/well of assay buffer (Tris Buffered Saline, 0.1% BSA, 2 mM glucose, 10 mM HEPES, pH 7.5) draining the plate in between. Repeat twice. Then blot the plate bottom on paper to remove excess buffer.
3. Prepare a 4 μg/ml VCAMIg-AP solution (Alkaline phosphatase coupled to VCAMIg) in assay buffer and filter with a 0.2:low protein binding syringe filter (Gelman Sciences #4454). From this stock, prepare a 0.4 μg/ml working solution of VCAMIg-AP in assay buffer. Add 25:l of 0.4 μg/ml VCAMIg-AP to every well.
5. Prepare dilutions of compounds to be tested in assay buffer. Concentrations should be 4× the desired final concentration and run in triplicate. Add 25 μl of the compound dilutions to designated wells.
7. Jurkat cells are centrifuged to remove cell culture media and washed once in assay buffer. Resuspend the washed Jurkat cells to a concentration of 8×10^6/ml in assay buffer containing 2 mM MnCl2. Pipeting the mixture up and down to ensure a uniform cell suspension. Add 50:l of cell suspension to each well except the NSB wells.
8. Gently tap the sides of the plate to mix well contents. Incubate the plate for 60 minutes at room temperature (RT).
9. Place the plate on the vacuum manifold to drain the well contents. Wash twice with 100 μl/well of wash buffer (assay buffer containing 1 mM MnCl2). Drain the plate and blot on paper towels.
10. Add 10 mg/ml of 4-Nitro phenyl phosphate to Substrate buffer (0.1M glycine, 1 mM ZnCl2, 1 mM MgCl2, pH 10.5). Add 100 μl/well and incubate for exactly 30 minutes at RT.
11. To stop the reaction, add 100 μl/well of 3N NaOH.
12. Read the 96-well plate in a Molecular Devices ELISA platereader at 405 nm. Analyze data with SoftMax software.
`COc1cccc(C(=O)N(CCC(=O)O)CC(=O)N(CCC(C)C)CC(=O)Nc2ccc3c(c2)C(=O)CCCC3)c1` [AX3] showed an IC50 of 15300 nM.
With `COc1cccc(C(=O)N(CCC(=O)O)CC(=O)N(CCC(C)C)CC(=O)Nc2ccc(-n3cnc(Cl)c3Cl)cc2)c1` [AX4] the IC50 was 15200 nM.
For `COc1cccc(C(=O)N(CCC(=O)O)CC(=O)N(CCC(C)C)CC(=O)Nc2ccc(-c3nnc(-c4ccccc4)o3)cc2)c1` [AX5], the IC50 was 35 nM.
For `CSCCCN(CC(=O)Nc1ccccc1)C(=O)CN(CCC(=O)O)C(=O)c1ccccc1` [AX6], the IC50 was 13500 nM.
`COc1ccc(C(=O)N(CCC(=O)O)CC(=O)N(CCC(C)C)CC(=O)Nc2ccccc2)cc1` [AX7] gave an IC50 of 11500 nM.
With `COc1cccc(C(=O)N(CCC(=O)O)CC(=O)N(CCC(C)C)CC(=O)Nc2ccc(N3CCOCC3)c(Cl)c2)c1` [AX9] the IC50 was 7380 nM.
`CC(C)CCN(CC(=O)Nc1ccccc1)C(=O)CN(CCC(=O)O)C(=O)c1ccccc1` [AX12] was tested, and the IC50 was 4120 nM.
Molecule `COc1cccc(C(=O)N(CCC(=O)O)CC(=O)N(CCC(C)C)CC(=O)Nc2cccc(OCCOc3ccccc3)c2)c1` [AX13] has an IC50 of 3160 nM.
`COc1cccc(C(=O)N(CCC(=O)O)CC(=O)N(CCC(C)C)CC(=O)Nc2cccc(C(=O)CC(=O)Nc3nccs3)c2)c1` [AX15] gave an IC50 of 2410 nM.
Molecule `COc1cccc(C(=O)N(CCC(=O)O)CC(=O)N(CCC(C)C)CC(=O)Nc2ccc(NC(=O)c3cc4ccccc4cn3)cc2)c1` [AX16] has an IC50 of 2840 nM.
With `COc1cccc(C(=O)N(CCC(=O)O)CC(=O)N(CCC(C)C)CC(=O)Nc2ccccc2)c1` [AX18] the IC50 was 1400 nM.
`COc1cccc(C(=O)N(CCC(=O)O)CC(=O)N(CCC(C)C)CC(=O)Nc2ccc(OCC(=O)Nc3ccccc3)cc2)c1` [AX19] gave an IC50 of 6190 nM.
In the case of `COc1cccc(C(=O)N(CCC(=O)O)CC(=O)N(CCC(C)C)CC(=O)Nc2ccc(CC(=O)N3CCc4ccccc43)cc2)c1` [AX21], the IC50 is reported as 761 nM.
In the case of `Cc1ccccc1NC(=O)Nc1ccc(NC(=O)CN(CCC(C)C)C(=O)CN(CCC(=O)O)C(=O)CN2CCCCC2)cc1` [AX22], the IC50 is reported as 636 nM.
`COc1cccc(C(=O)N(CCC(=O)O)CC(=O)N(CCC(C)C)CC(=O)Nc2ccc(C(=O)CC(=O)Nc3ccccc3Cl)cc2)c1` [AX23] gave an IC50 of 580 nM.
With `CC(C)CN(CC(=O)Nc1ccc(NC(=O)Nc2ccccc2)cc1)C(=O)CN(CCC(=O)O)C(=O)Cc1ccccc1` [AX24] the IC50 was 300 nM.
In the case of `Cc1ccccc1NC(=O)Nc1ccc(NC(=O)CN(CCC(C)C)C(=O)CN(CCC(=O)O)C(=O)COc2ccccc2)cc1` [AX25], the IC50 is reported as 246 nM.
`COc1cccc(C(=O)N(CCC(=O)O)CC(=O)N(CCC(C)C)CC(=O)Nc2ccc(NC(=O)c3c[nH]c4ccccc34)cc2)c1` [AX26] showed an IC50 of 240 nM.
In the case of `CSCCCN(CC(=O)Nc1ccc(NC(=O)Nc2ccccc2)cc1)C(=O)CN(CCC(=O)O)C(=O)c1ccccc1` [AX27], the IC50 is reported as 200 nM.
In the case of `CC(C)CN(CC(=O)Nc1ccc(NC(=O)Nc2ccccc2)cc1)C(=O)CN(CCC(=O)O)C(=O)c1ccccc1` [AX28], the IC50 is reported as 150 nM.
`Cc1ccccc1NC(=O)Nc1ccc(NC(=O)CN(CCC(C)C)C(=O)CN(CCC(=O)O)C(=O)C2CCCCC2)cc1` [AX29] was tested, and the IC50 was 890 nM.
For `CC(C)CCN(CC(=O)Nc1ccc(NC(=O)Nc2ccccc2)cc1)C(=O)CN(CCC(=O)O)C(=O)c1ccccc1` [AX33], the IC50 was 95 nM.
`Cc1ccccc1NC(=O)Nc1ccc(NC(=O)CN(CCC(C)C)C(=O)CN(CCC(=O)O)C(=O)COc2ccccc2)cc1` [AX34] gave an IC50 of 92 nM.
Molecule `Cc1ccccc1NC(=O)Nc1ccc(NC(=O)[C@@H]2CCCN2C(=O)CN(CCC(=O)O)C(=O)c2ccccc2)cc1` [AX35] has an IC50 of 85 nM.
Work on `Cc1ccccc1NC(=O)Nc1ccc(NC(=O)CN(CCC(C)C)C(=O)CN(CCC(=O)O)C(=O)CBr)cc1` [AX36] yielded an IC50 of 63.2 nM.
`Cc1ccccc1NC(=O)Nc1ccc(NC(=O)CN(CCC(C)C)C(=O)CN(CCC(=O)O)C(=O)N2CCOCC2)cc1` [AX37] was tested, and the IC50 was 60.5 nM.
Molecule `Cc1ccccc1NC(=O)Nc1ccc(NC(=O)CN(CCC(=O)O)C(=O)CN(CCC(=O)O)C(=O)c2ccccc2)cc1` [AX38] has an IC50 of 60 nM.
Work on `Cc1ccccc1NC(=O)Nc1ccc(NC(=O)[C@@H]2CSCN2C(=O)CN(CCC(=O)O)C(=O)c2ccccc2)cc1` [AX39] yielded an IC50 of 60 nM.
With `Cc1ccccc1NC(=O)Nc1ccc(NC(=O)CN(CCC(C)C)C(=O)CN(CCC(=O)O)C(=O)CN2CCOCC2)cc1` [AX42] the IC50 was 52 nM.
Molecule `Cc1c(C(=O)Nc2ccc3c(c2)C(=O)N(CCC(=O)O)CC(=O)N3C)c(=O)n(-c2ccccc2)n1C` [BX6] has an IC50 of 15400 nM.
In the case of `CN1C(=O)CN(CCC(=O)O)C(=O)c2cc(NC(=O)Cc3ccc(NC(=O)Cc4c[nH]c5ccccc45)cc3)ccc21` [BX11], the IC50 is reported as 9050 nM.
`CN1C(=O)CN(CCC(=O)O)C(=O)c2cc(NC(=O)Cc3ccc(NC(=O)c4ccco4)cc3)ccc21` [BX12] was tested, and the IC50 was 6100 nM.
Work on `CC1=NN(c2ccc(C(=O)Nc3ccc4c(c3)C(=O)N(CCC(=O)O)CC(=O)N4C)cc2)C(=O)C1` [BX13] yielded an IC50 of 5860 nM.
In the case of `Cc1ccccc1NC(=O)Nc1ccc(CC(=O)Nc2ccc3c(c2)C(=O)N(CCCCC(=O)O)CC(=O)N3C)cc1` [BX15], the IC50 is reported as 5130 nM.
Work on `Cc1ccccc1NC(=O)Nc1ccc(CC(=O)NCc2ccc3c(c2)C(=O)N(CCC(=O)O)CC(=O)N3C)cc1` [BX16] yielded an IC50 of 5120 nM.
Work on `Cc1ccccc1NC(=O)Nc1ccc(NC(=O)c2ccc3c(c2)C(=O)N(CCC(=O)O)CC(=O)N3C)cc1` [BX17] yielded an IC50 of 977 nM.
Work on `Cc1ccccc1NC(=O)Nc1ccc(CNC(=O)c2ccc3c(c2)CN(C)C(=O)C(CC(=O)O)N3)cc1` (stereo not shown) [BX18] yielded an IC50 of 4430 nM.
In the case of `Cc1ccccc1NC(=O)Nc1ccc(CC(=O)N(C)c2ccc3c(c2)C(=O)N(CCC(=O)O)CC(=O)N3C)cc1` [BX23], the IC50 is reported as 3240 nM.
For `Cc1ccccc1NC(=O)Nc1ccc(C(=O)NCc2ccc3c(c2)C(=O)N(CCC(=O)O)CC(=O)N3C)cc1` [BX29], the IC50 was 825 nM.
In the case of `CN1C(=O)CN(CCC(=O)O)C(=O)c2cc(NC(=O)Cc3ccc(NC(=O)Nc4ccccc4)cc3)ccc21` [BX32], the IC50 is reported as 959 nM.
Work on `Cc1ccccc1NC(=O)Nc1ccc(NC(=O)Cc2ccc3c(c2)C(=O)N(CCC(=O)O)CC(=O)N3C)cc1` [BX33] yielded an IC50 of 886 nM.
For `CN1C(=O)CN(CCC(=O)O)C(=O)c2cc(NC(=O)Cc3ccc(NC(=O)Nc4ccccc4Cl)cc3)ccc21` [BX34], the IC50 was 723 nM.
`Cc1ccccc1NC(=O)Nc1ccc(NC(=O)c2ccc3c(c2)NC(CC(=O)O)C(=O)N(C)C3)cc1` (stereo not shown) [BX36] was tested, and the IC50 was 646 nM.
In the case of `Cc1ccccc1NC(=O)Nc1ccc(CC(=O)Nc2cc3c(cc2Cl)N(C)C(=O)CN(CCC(=O)O)C3=O)cc1` [BX37], the IC50 is reported as 643 nM.
`Cc1ccccc1NC(=O)Nc1ccc(CC(=O)Nc2ccc3c(c2)C(=O)N(CCC(=O)O)C(C)C(=O)N3C)cc1` (stereo not shown) [BX38] gave an IC50 of 550 nM.
Work on `Cc1ccccc1NC(=O)Nc1ccc(CC(=O)Nc2ccc3c(c2)C(=O)N(CCC(=O)O)CC(=O)N3CCC(=O)O)cc1` [BX39] yielded an IC50 of 480 nM.
`Cc1ccccc1NC(=O)Nc1ccc(CC(=O)Nc2ccc3c(c2)C(=O)N(CCC(=O)O)CC(=O)N3C2CCCCC2)cc1` [BX40] showed an IC50 of 438 nM.
`Cc1ccccc1NC(=O)Nc1ccc(CC(=O)Nc2ccc3c(c2)C(=O)N(C)CC(=O)N3CCC(=O)O)cc1` [BX42] gave an IC50 of 326 nM.
`Cc1ccccc1NC(=O)Nc1ccc(CC(=O)Nc2ccc3c(c2)C(=O)N(CCC(=O)O)CC(=O)N3C2CCN(Cc3ccccc3)CC2)cc1` [BX43] was tested, and the IC50 was 273 nM.
`Cc1ccccc1NC(=O)Nc1ccc(CC(=O)Nc2ccc3c(c2)C(=O)N(CCC(=O)O)CC(=O)N3C)cc1` [BX44] showed an IC50 of 257 nM.
In the case of `Cc1ccccc1NC(=O)Nc1ccc(CC(=O)Nc2ccc3c(c2)C(=O)N(CCC(=O)O)CC(=O)N3CC2CC2)cc1` [BX46], the IC50 is reported as 194 nM.
`Cc1ccccc1NC(=O)Nc1ccc(CC(=O)Nc2ccc3c(c2)C(=O)N(CCC(=O)O)CC(=O)N3Cc2ccc(F)cc2)cc1` [BX48] was tested, and the IC50 was 166 nM.
In the case of `CCC(C)N1C(=O)CN(CCC(=O)O)C(=O)c2cc(NC(=O)Cc3ccc(NC(=O)Nc4ccccc4C)cc3)ccc21` (stereo not shown) [BX49], the IC50 is reported as 163 nM.
`Cc1ccccc1NC(=O)Nc1ccc(CC(=O)Nc2ccc3c(c2)C(=O)N(CC(C)C(=O)O)CC(=O)N3C)cc1` (stereo not shown) [BX50] gave an IC50 of 52.3 nM.
With `Cc1ccccc1NC(=O)Nc1ccc(CC(=O)Nc2ccc3c(c2)C(=O)N(CCC(=O)O)CC(=O)N3CCc2ccccc2)cc1` [BX52] the IC50 was 132 nM.

— US6686350B1, “Cell adhesion inhibitors” (Biogen, Inc., priority 1996, dated 2004)
